Laboratory results as given in patent US11999727B2 (Tango Therapeutics, Inc., priority 2020, dated 2024).

Columns and labels:
[1] = tested on: HAP1 MTAP-deleted cell line; experiment: Viability assay, MTAP-deleted cell line; assay type: cell-based; conditions: Homo sapiens, HAP1, viability IC50, MTAP-deleted cell line; read-out: HAP1 MTAP deleted viability
Description: Table 1 additionally indicates IC50 values in a viability assay for the MTAP-deleted cell line (column 10), indicating the effect of treatment with compound on cell survival.

[2] = tested on: HAP1 MTAP-intact cell line; experiment: SDMA in-cell western assay, HAP1 MTAP-intact; assay type: cell-based; conditions: Homo sapiens, HAP1, SDMA in-cell western, HAP1 MTAP-intact; read-out: MTAP HAP1 intact IC50
Outline: (§1)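 MTAP-null vs endogenous-MTAP HAP1 isogenic cells; in-cell western SDMA readout; IC50 per line.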

PRMT5 [3] = molecular target: T1, PRMT5 (Homo sapiens, UniProt O14744); experiment: PRMT5 biochemical IC50 assay with no cofactor; conditions: PRMT5, no cofactor; read-out: No Cofactor/rel IC50
T1 construct: purchased Viva (custom protein)
T1 sequence (O14744 whole entry): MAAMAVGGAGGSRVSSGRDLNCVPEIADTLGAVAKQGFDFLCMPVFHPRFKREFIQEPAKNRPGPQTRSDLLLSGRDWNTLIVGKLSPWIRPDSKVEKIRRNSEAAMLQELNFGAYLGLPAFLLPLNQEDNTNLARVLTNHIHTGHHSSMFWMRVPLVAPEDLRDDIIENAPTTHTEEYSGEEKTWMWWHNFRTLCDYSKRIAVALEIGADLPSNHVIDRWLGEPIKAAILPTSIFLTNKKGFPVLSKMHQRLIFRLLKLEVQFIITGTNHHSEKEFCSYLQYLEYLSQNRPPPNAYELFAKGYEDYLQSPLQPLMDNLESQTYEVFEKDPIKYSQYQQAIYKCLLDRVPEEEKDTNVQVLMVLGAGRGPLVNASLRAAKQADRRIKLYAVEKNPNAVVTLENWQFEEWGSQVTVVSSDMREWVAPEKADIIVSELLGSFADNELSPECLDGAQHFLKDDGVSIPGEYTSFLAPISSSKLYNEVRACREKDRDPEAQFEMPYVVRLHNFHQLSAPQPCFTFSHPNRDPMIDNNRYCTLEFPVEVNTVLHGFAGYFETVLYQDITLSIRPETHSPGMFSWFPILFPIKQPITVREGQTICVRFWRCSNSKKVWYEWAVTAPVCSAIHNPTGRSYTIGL
T1 sequence (Q9BQA1 whole entry partner): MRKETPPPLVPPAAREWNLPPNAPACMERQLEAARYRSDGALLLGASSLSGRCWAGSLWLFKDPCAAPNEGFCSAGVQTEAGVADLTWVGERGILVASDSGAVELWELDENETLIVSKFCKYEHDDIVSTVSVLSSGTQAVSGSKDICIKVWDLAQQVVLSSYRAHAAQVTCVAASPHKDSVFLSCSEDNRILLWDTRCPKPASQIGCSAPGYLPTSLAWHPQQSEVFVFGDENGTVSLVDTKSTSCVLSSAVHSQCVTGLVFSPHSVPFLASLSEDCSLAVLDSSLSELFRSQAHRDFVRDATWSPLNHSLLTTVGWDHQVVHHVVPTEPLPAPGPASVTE
Description: Table 1 indicates IC50 values (μM) against PRMT5 for exemplary compounds in the presence of SAM as cofactor, with no cofactor, and with MTA as cofactor, respectively (columns 4-6). […] Ki values can be calculated from the IC50 values as described in the Examples section. As detailed in the Examples section, for the assay performed in the presence of SAM, IC50=Ki×1.5 (Ki=IC50/1.5).

[4] = tested on: HAP1 MTAP-deleted cell line; experiment: SDMA in-cell western assay, HAP1 MTAP-deleted; assay type: cell-based; conditions: for IC50: Homo sapiens, HAP1, SDMA in-cell western, HAP1 MTAP-deleted, read-out: HAP 1 MTAP deleted IC50; for MTAP intact/deleted ratio: IC50 ratio HAP1 MTAP-intact / HAP1 MTAP-deleted, SDMA in-cell western
Outline: as §1

PRMT5 [5] = molecular target: T1, PRMT5; experiment: PRMT5 biochemical IC50 assay with SAM as cofactor; conditions: PRMT5, SAM as cofactor; read-out: SAM IC50
PRMT5 [6] = molecular target: T1, PRMT5; experiment: PRMT5 biochemical IC50 assay with MTA as cofactor; conditions: PRMT5, MTA as cofactor; read-out: MTA IC50

SMILES | IC50 [2] | IC50 (PRMT5 [3]) | IC50 [4] | IC50 (PRMT5 [5]) | IC50 (PRMT5 [6]) | IC50 [1] | MTAP intact/deleted ratio [4]
Cc1cc(NC(=O)C(=O)N2C[C@H](C)CC[C@H]2c2ccc3sccc3c2)cnc1N (single isomer, unassigned) [Compound 617] | > 1000 nM | > 500 nM | 100 to 1000 nM | > 500 nM | > 500 nM | > 10000 nM | A (an IC50 ratio greater than or equal to 10 fold)
COc1ncc(NC(=O)C(=O)N2C[C@@H](C)CC[C@@H]2c2ccc3sccc3c2)cc1C(N)=O (single isomer, unassigned) [Compound 618] | > 1000 nM | < 50 nM | < 100 nM | < 50 nM | < 50 nM | < 1000 nM | A (an IC50 ratio greater than or equal to 10 fold)
Cc1cc(NC(=O)C(=O)N2C[C@@H](C)CC[C@@H]2c2ccc3c(c2)CCC(=O)N3)cnc1C (single isomer, unassigned) [Compound 619] | > 1000 nM | > 500 nM | 100 to 1000 nM | > 500 nM | > 500 nM | 1000 to 10000 nM | A (an IC50 ratio greater than or equal to 10 fold)
C[C@H]1CC[C@@H](c2cc(F)cc(Cl)c2)N(C(=O)C(=O)Nc2cncc(C(N)=O)c2)C1 (single isomer, unassigned) [Compound 624] | > 1000 nM | > 500 nM | > 1000 nM | > 500 nM | > 500 nM | > 10000 nM | B (an IC50 ratio greater than or equal to 3 fold but lower than 10 fold)
C[C@@H]1CC[C@H](c2cc(F)cc(Cl)c2)N(C(=O)C(=O)Nc2cncc(C(N)=O)c2)C1 (single isomer, unassigned) [Compound 625] | > 1000 nM | > 500 nM | 100 to 1000 nM | 50 to 500 nM | 50 to 500 nM | > 10000 nM | A (an IC50 ratio greater than or equal to 10 fold)
C[C@H]1CC[C@H](c2ccc(-c3cc[nH]n3)cc2)N(C(=O)C(=O)Nc2cncc(C(N)=O)c2)C1 (single isomer, unassigned) [Compound 626] | > 1000 nM | 50 to 500 nM | < 100 nM | 50 to 500 nM | 50 to 500 nM | 1000 to 10000 nM | A (an IC50 ratio greater than or equal to 10 fold)

Now from value to compound, other results behind:

IC50 [2] | IC50 (PRMT5 [3]) | IC50 [4] | IC50 (PRMT5 [5]) | IC50 (PRMT5 [6]) | SMILES | IC50 [1] | MTAP intact/deleted ratio [4]
> 1000 nM | 50 to 500 nM | < 100 nM | 50 to 500 nM | < 50 nM | C[C@@H]1CC[C@@H](c2ccc3[nH]ncc3c2F)N(C(=O)C(=O)Nc2cncc(C(N)=O)c2)C1 (single isomer, unassigned) [Compound 612] | 1000 to 10000 nM | A (an IC50 ratio greater than or equal to 10 fold)
> 1000 nM | 50 to 500 nM | < 100 nM | 50 to 500 nM | < 50 nM | C[C@H]1CC[C@H](c2cc(F)cc(Cl)c2)N(C(=O)C(=O)Nc2cncc(C(N)=O)c2)C1 (single isomer, unassigned) [Compound 615] | 1000 to 10000 nM | A (an IC50 ratio greater than or equal to 10 fold)
100 to 1000 nM | < 50 nM | < 100 nM | 50 to 500 nM | < 50 nM | Cc1cc(NC(=O)C(=O)N2C[C@@H](C)CC[C@@H]2c2ccc3[nH]ncc3c2)cnc1C (single isomer, unassigned) [Compound 620] | < 1000 nM | A (an IC50 ratio greater than or equal to 10 fold)
100 to 1000 nM | < 50 nM | < 100 nM | 50 to 500 nM | < 50 nM | Cc1cc(NC(=O)C(=O)N2C[C@@H](C)CC[C@@H]2c2ccc(NS(C)(=O)=O)cc2)cnc1C (single isomer, unassigned) [Compound 621] | 1000 to 10000 nM | A (an IC50 ratio greater than or equal to 10 fold)
